Data reported in article PMC8399196, “Synthesis, Characterization, and Anticancer Activity of Benzothiazole Aniline Derivatives and Their Platinum (II) Complexes as New Chemotherapy Agents” (Pharmaceuticals, 2021).
Entries after “also recorded” stand apart in the source; their conditions may differ.

How the values were obtained:
[1] = system: A549 cells; assay: CCK-8 cell viability assay, A549; type: cell-based; conditions: A549 human lung cancer cells, CCK-8, 24 h, mean ± SEM, n = 3
Method: (§1) Human colorectal adenocarcinoma cells (HT-29, ATCC® HTB-38), adenocarcinomic human alveolar basal epithelial cells (A549, ATCC® CCL-185), and prostate cancer (PC-3, ATCC® CRL-1435) were cultured in the growth medium, containing Roswell Park Memorial Institute Medium (RPMI1640) WelGENE, Daegu, Korea supplemented with 10% (v/v) fetal bovine serum (FBS, Gibco, Grand Island, NY, USA) and 1% antibiotics-antimycotics (Gibco). Human breast adenocarcinoma cells (MCF-7, ATCC® HTB-22™), hepatocellular carcinoma (HepG2, ATCC® HB-8065™), Rattus brain glioma (C6, ATCC ® CRL-2303™), and human renal carcinoma (Caki-2, ATCC® HTB-47™) cells were cultured in Dulbecco’s modified Eagle’s medium (DMEM, WelGENE, Daegu, Korea) supplemented with 10% (v/v) FBS (Gibco) and 1% antibiotics-antimycotics (Gibco). Mouse brain neural (NE-4C, ATCC® CRL-2925™) and human cervix adenocarcinoma cells (HeLa, ATCC® CCL-2™) were cultured in Eagle’s minimum essential medium (EMEM, ATCC® 30-2003™) supplemented with 10% FBS (Gibco) and 1% antibiotics-antimycotics (Gibco). Mouse liver normal cells (AML12, ATCC® CRL-2254™) were cultured in DMEM/F-12 (WelGENE) supplemented with 10% FBS (Gibco), 1 × ITS (10 μg/mL insulin, 5.5 μg/mL transferrin, 6.7 ng/mL selenium, Gibco), […] 1% antibiotics-antimycotics (Gibco). Human breast epithelial cells (MCF 10A, ATCC® CRL-10317™) were cultured in DMEM/F-12 (WelGENE) supplemented with 5% horse serum (Gibco), 20 ng/mL epidermal growth factor (EGF, Peprotech Inc., Rocky Hill, NJ, USA), […] (Sigma-Aldrich, St. Louis, MO, USA), 100 ng/mL colera toxin (Sigma-Aldrich), 10 μg/mL insulin (Sigma-Aldrich) and 1% antibiotics- (Gibco). Human colon normal epithelial cells (FHC, ATCC® CRL-18317™) were cultured in DMEM/F-12 (WelGENE) supplemented with 10% FBS (Gibco), 10 ng/mL cholera toxin (Sigma-Aldrich), 20 ng/mL EGF (Peprotech Inc.), 100 μg/mL hydrocortisone (Sigma-Aldrich), 1 × ITS (10 μg/mL insulin, 5.5 μg/mL transferrin, 6.7 ng/mL selenium, Gibco) and 1% antibiotics-antimycotics (with 100 units penicillin, 100 μg streptomycin and 250 ng amphotericin B per mL, Gibco). Cells were incubated in a humidified 5% CO2 atmosphere at 37 °C.
(§2) To evaluate cytotoxicity, cells were seeded in a 96-well plate (FHC, 0.5 × 10^4 cells/well; Caki-2 and MCF 10A, 1 × 10^4 cells/well; AML12, 1.2 × 10^4 cells/well; HeLa, HEK-293, A549, and PC-3, 1.5 × 10^4 cells/well; HT-29, MCF-7, C6, HepG2, and NE-4C, 2 × 10^4 cells/well). […] In addition, cell counting kit-8 (CCK-8, Dojindo Laboratories, Kumamoto, Japan) solution was added to each well, and the plate was incubated for 2 h. The absorbance was then measured at 450 nm using a microplate reader (SpectraMax i3, Molecular Devices, San Jose, CA, USA). The IC50 and logIC50 values were calculated in GraphPad Prism (GraphPad Prism Software Inc. Version 5.02, San Diego, CA, USA). All experiments were performed, independently, three times. The graph of logIC50 values represents the average value.

[2] = system: AML12 cells; assay: CCK-8 cell viability assay, AML12 normal cells; type: cell-based; conditions: AML12 normal mouse liver hepatocyte cells, CCK-8, 24 h, mean ± SEM, n = 3
Method: as §1, §2

[3] = system: PC-3 cells; assay: CCK-8 cell viability assay, PC-3; type: cell-based; conditions: PC-3 human prostate cancer cells, CCK-8, 24 h, mean ± SEM, n = 3
Method: as §1, §2

[4] = system: Caki-2 cells; assay: CCK-8 cell viability assay, Caki-2; type: cell-based; conditions: Caki-2 human renal cancer cells, CCK-8, 24 h, mean ± SEM, n = 3
Method: as §1, §2

[5] = system: HT-29 cells; assay: CCK-8 cell viability assay, HT-29; type: cell-based; conditions: HT-29 human colon cancer cells, CCK-8, 24 h, mean ± SEM, n = 3
Method: as §1, §2

[6] = system: FHC cells; assay: CCK-8 cell viability assay, FHC normal cells; type: cell-based; conditions: FHC normal human colon epithelial cells, CCK-8, 24 h, mean ± SEM, n = 3
Method: as §1, §2

[7] = system: HEK-293 cells; assay: CCK-8 cell viability assay, HEK-293 normal cells; type: cell-based; conditions: HEK-293 human embryonic kidney cells, CCK-8, 24 h, mean ± SEM, n = 3
Method: as §2

[8] = system: HepG2 cells; assay: CCK-8 cell viability assay, HepG2; type: cell-based; conditions: HepG2 human hepatic carcinoma cells, CCK-8, 24 h, mean ± SEM, n = 3
Method: as §1, §2

[9] = system: MCF-7 cells; assay: CCK-8 cell viability assay, MCF-7; type: cell-based; conditions: MCF-7 human breast cancer cells, CCK-8, 24 h, mean ± SEM, n = 3
Method: as §1, §2

[10] = system: HeLa cells; assay: CCK-8 cell viability assay, HeLa; type: cell-based; conditions: HeLa human cervical cancer cells, CCK-8, 24 h, mean ± SEM, n = 3
Method: as §1, §2

[11] = system: MCF-10A cells; assay: CCK-8 cell viability assay, MCF-10A normal cells; type: cell-based; conditions: MCF-10A normal human breast epithelial cells, CCK-8, 24 h, mean ± SEM, n = 3
Method: as §1, §2

[12] = system: C6 cells; assay: CCK-8 cell viability assay, C6; type: cell-based, Rattus; conditions: C6 brain glioma cells, CCK-8, 24 h, mean ± SEM, n = 3
Method: as §1, §2

[13] = system: NE-4C cells; assay: CCK-8 cell viability assay, NE-4C normal cells; type: cell-based; conditions: NE-4C mouse brain neural stem cells, CCK-8, 24 h, mean ± SEM, n = 3
Method: as §1, §2

[14] = Stability in buffered aqueous solution by UV-Vis spectroscopy; type: physicochemical; conditions: for Stability, time-dependent UV-Vis spectrum: 1 mM in PBS (L1Pt: 2% DMSO in PBS), physiological pH 7.4, t = 0, 7, 24 h, 200-450 nm; for Stability, time-dependent UV-Vis spectrum at other pH-values: 1 mM in PBS, acidic (pH 2), weakly acidic (pH 5), alkaline (pH 12), t = 0, 7, 24 h
Method: An indispensable feature of any promising anticancer agent is its thermodynamic stability in aqueous media. All prospective agents should be able to reach their target under the conditions encountered in living organisms. Therefore, the stability of the compounds was measured at 1 mM in phosphate-buffered saline (PBS) solution using UV–Vis spectroscopy. […] The stability of the metal complexes is often dependent on the pH value and the pH 4.5–5.0 is crucial since endosomal uptake of the complexes by lysosomes can occur.

[15] = Solubility in water / aqueous media; type: physicochemical

Compound	IC50 [1] [µM]	IC50 [2] [µM]	IC50 [3] [µM]	IC50 [4] [µM]	IC50 [5] [µM]	IC50 [6] [µM]	IC50 ([7]; HEK293) [µM]	IC50 [8] [µM]	IC50 ([9]; MCF7) [µM]	IC50 [10] [µM]	IC50 [11] [µM]	IC50 ([12]; Rattus norvegicus) [µM]	IC50 ([13]; Neural stem cell) [µM]	IC50 [7] [µM]	IC50 [9] [µM]	IC50 [12] [µM]	IC50 [13] [µM]	Stability, time-dependent UV-Vis spectrum [14]	Stability, time-dependent UV-Vis spectrum at other pH-values [14]	Solubility in water / aqueous media [15]	also measured
Nc1ccc(-c2nc3ccccc3s2)cc1 [BTA, 2-(4-aminophenyl)-benzothiazole, reference compound]	> 500	> 500	182 ± 7.8	463 ± 44.1	275 ± 5	> 500	> 500	52 ± 5.7	104 ± 28.6	76.4 ± 23.4	401 ± 136	425 ± 47.7	60.9 ± 2.9	–	–	–	–	–	–	–	–
N.N.[Cl][Pt][Cl] [Cisplatin, cis-diamminedichloroplatinum-(II), reference compound]	> 500	32.1 ± 4.4	> 500	> 500	39.1 ± 0.6	> 500	–	54.2 ± 31.8	–	26.2 ± 5.6	95.9 ± 6.7	–	–	65.5 ± 4.1	204 ± 27.3	227 ± 34.3	9 ± 0.3	–	–	–	IC50 ([2]; listed as cisplatin): 32 µM
NCC(N)C(=O)Nc1ccc(-c2nc3ccccc3s2)cc1 (centres unmarked) [Compound L1, 2,3-Diamino-N-(4-benzothiazol-2-yl-phenyl)-propionamide]	100 ± 8.4	138 ± 24.1	94.9 ± 0.8	75.6 ± 3.4	29.9 ± 0.3	72.7 ± 2	68.1 ± 2.8	5.9 ± 0.5	65.9 ± 12.3	41.9 ± 3.4	65.1 ± 1.9	77.8 ± 9.7	36.8 ± 3.7	–	–	–	–	did not display any significant changes throughout 24 h	no obvious changes in the absorptions peak	soluble in water	–
O=C(Nc1ccc(-c2nc3ccccc3s2)cc1)C1C[NH2+][Pt-2]([Cl])([Cl])[NH2+]1 (centres unmarked) [Compound L1Pt]	167 ± 11.2	139 ± 0.8	55.7 ± 7.5	106 ± 8.5	42.6 ± 5.6	64.3 ± 2.4	–	7.5 ± 0.1	–	64.7 ± 0.3	46.9 ± 5.1	–	–	54.9 ± 2.8	59 ± 11	93.3 ± 22.7	25.7 ± 1.7	did not display any significant changes throughout 24 h; also recorded: remains stable over 24 h	no obvious changes in the absorptions peak	poor solubility in aqueous media	–
